Reference: paper PMC3376404 (Bioorganic & medicinal chemistry letters, 2012)
Several values for one entry are separate records, joined by “and”; a condition that tells them apart may be missing. Equal values may be shown once. Read-outs that look alike come from different tables or passages of the source.

Columns and labels:
[1] = Reaction with the biological thiol glutathione; format: physicochemical; settings: for kobs (pseudo-first-order rate constant, + thiol): compound 70 μM, 24 °C; for kobs (pseudo-first-order rate constant, + thiol) / second-order rate constant for reaction with GSH: GSH 700 μM, MOPS 300 mM, pH 7, MeCN 25% v/v; for second-order rate constant for reaction with GSH: estimated from kobs
Decomposition = format: physicochemical; settings: for kobs (apparent rate constant for decomposition): no thiol, compound 70 μM, MOPS 250 mM, pH 7, MeCN 25% v/v, 24 °C
[2] = HEPES buffer, 50 mM, pH 7, 24 °C, no organic co-solvent; cited from earlier work
[3] = 100 μM 1 in HEPES, 250 mM, pH 7, 24 °C, no organic co-solvent; cited from earlier work

| SMILES | kobs (pseudo-first-order rate constant, + thiol) [1] | second-order rate constant for reaction with GSH [1] [M⁻¹ min⁻¹] | kobs (apparent rate constant for decomposition) (Decomposition) | kobs (decomposition) (Decomposition; 300 mM MOPS, pH 7.0) | kobs (decomposition) (Decomposition; 500 mM MOPS) | kobs (decomposition) (Decomposition; pH 6.5, 300 mM MOPS) [min⁻¹] | kobs (decomposition) (Decomposition; pH 7.5, 300 mM MOPS) [min⁻¹] | stability relative to the cis isomer in aqueous buffered solution (Decomposition; trans isomer 6 versus cis isomer 5) | second-order rate constant for reaction with GSH [2] [M⁻¹ min⁻¹] | rate constant (decomposition) [3] [min⁻¹] | t1/2 (decomposition) [3] [h] | times less reactive toward GSH than compound 5 ([1]; relative to 5) [times] | times more stable than 5 against decomposition in aqueous buffer (Decomposition; relative to 5) | times more stable than 6 against decomposition in aqueous buffer (Decomposition; relative to 6) [times] |
| --- | --- | --- | --- | --- | --- | --- | --- | --- | --- | --- | --- | --- | --- | --- |
| CC1(C)[S+]([O-])SC(=O)[C@@]1(C)O (some centres unmarked) [Compound 5, 4-hydroxy-4,5,5-trimethyl-1,2-dithiolan-3-one-1-oxide] | 24.3 ± 0.1 × 10^−2 min^-1 | 344 | 13.2 ± 0.01 × 10^−3 min^-1 | – | – | – | – | – | – | – | – | – | – | – |
| CC1(C)[S+]([O-])SC(=O)[C@]1(C)O (some centres unmarked) [Compound 6, 4-hydroxy-4,5,5-trimethyl-1,2-dithiolan-3-one-1-oxide] | 18.3 ± 0.2 × 10^−2 min^-1 | 261 | 6.2 ± 0.6 × 10^−3 min^-1 | 1.5 ± 0.2 × 10^−2 min^-1 and 1.5 × 10^−2 min^-1 | 1.9 ± 0.2 × 10^−2 min^-1 | 0.0087 | 0.047 | approximately two times more stable | – | – | – | – | – | – |
| C/C1=C\[C@@H](O)C(=O)/C=C/C=C\c2csc(n2)[C@@H](C)NC(=O)C[C@@]2(CC1)[S+]([O-])SC(=O)[C@]2(C)O (some centres unmarked) [Compound 1, Leinamycin, reference compound] | 6.67 ± 0.01 × 10^−2 min^-1 | 95 | 0.408 ± 0.001 × 10^−3 min^-1 | – | – | – | – | – | 624 | 0.00072 | 16.1 | 3.6 | approximately 30 times | ~15 |
